In US9540370B2, “Heterocyclic compounds and their use as glycogen synthase kinase-3 inhibitors” (ABBVIE DEUTSCHLAND GMBH & CO. KG, priority 2010, dated 2017):
pIC50: −log10 of the molar value.

Biological target: T1, human Glycogen Synthase Kinase-3 beta (hGSK-3β) (Homo sapiens, UniProt P49841)
T1 construct: purchased Upstate cell signaling solutions
Assay: Biochemical hGSK-3Beta assay (33P incorporation into biotinylated peptide substrate)
Conditions: 10 μM ATP, 30 minutes at room temperature; read-out: GSK-3β IC50
Protocol: Methods—Biochemical hGSK-3Beta Assay
Compounds were tested for their ability to inhibit human Glycogen Synthase Kinase-3 beta (hGSK-3β) to phosphorylate biotin-[…](pS)EDEEE. Compounds were incubated with 0.5 μCi 33P-ATP, 10 μM ATP, 0.0125 U hGSK-3β (Upstate cell signaling solutions) and 1 μM substrate (biotin-[…](pS)EDEEE) in 50 mM HEPES, 10 mM MgCl2, […], 1 mM DTT, 0.0075% Triton, 2% DMSO (total volume 50 μL) for 30 minutes at room temperature. The incubation was stopped by addition of an equal volume of 100 mM EDTA, 4M NaCl. 80 μL of this mixture was added to streptavidin-coated Flash -plates (Perkin Elmer). Following a wash step, 33P incorporation was quantified on a MicroBeta microplate liquid scintillation counter (PerkinElmer). IC50s were determined by fitting a sigmoidal dose-response curve to the counts obtained at the different concentrations in GraphPad Prism.

T1 sequence (P49841 whole entry): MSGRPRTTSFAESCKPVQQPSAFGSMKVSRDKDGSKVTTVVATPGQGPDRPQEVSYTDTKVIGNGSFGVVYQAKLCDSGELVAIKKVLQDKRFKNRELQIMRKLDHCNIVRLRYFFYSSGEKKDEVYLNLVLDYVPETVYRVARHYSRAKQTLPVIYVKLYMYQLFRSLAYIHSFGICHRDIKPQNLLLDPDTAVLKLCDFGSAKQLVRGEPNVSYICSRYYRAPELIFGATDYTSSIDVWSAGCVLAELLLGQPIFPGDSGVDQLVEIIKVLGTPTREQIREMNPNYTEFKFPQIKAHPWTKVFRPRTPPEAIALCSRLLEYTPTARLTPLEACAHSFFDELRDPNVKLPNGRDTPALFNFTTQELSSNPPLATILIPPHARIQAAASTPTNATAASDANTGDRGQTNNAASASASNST

pIC50 | SMILES
> 7.00 | O=C(Nc1cccc(C2=CCOCC2)n1)Nc1ccnc2c(F)cccc12 [Example 1, 1-(6-(3,6-Dihydro-2H-pyran-4-yl)pyridin-2-yl)-3-(8-fluoroquinolin-4-yl)urea]
> 7.00 | O=C(Nc1cccc(C2CCOCC2)n1)Nc1ccnc2c(F)cccc12 [Example 2, 1-(8-Fluoroquinolin-4-yl)-3-(6-(tetrahydro-2H-pyran-4-yl)pyridin-2-yl)urea]
> 7.00 | O=C(Nc1cccc(C2=COCCC2)n1)Nc1ccnc2c(F)cccc12 [Example 3, 1-(6-(3,4-Dihydro-2H-pyran-5-yl)pyridin-2-yl)-3-(8-fluoroquinolin-4-yl)urea]
> 7.00 | O=C(Nc1cccc(C(F)(F)F)n1)Nc1ccnc2ccc(Br)cc12 [Example 16, 1-(6-Bromo-quinolin-4-yl)-3-(6-trifluoromethyl-pyridin-2-yl)-urea]
> 7.00 | O=C(Nc1cccc(C(F)(F)F)n1)Nc1ccnc2ccccc12 [Example 17, 1-(6-(Trifluoromethyl)pyridin-2-yl)-3-quinolin-4-yl-urea]
> 7.00 | O=C(Nc1cccc(C(F)(F)F)n1)Nc1ccnc2c(F)cc(F)cc12 [Example 18, 1-(6,8-Difluoroquinolin-4-yl)-3-(6-trifluoromethyl-pyridin-2-yl)-urea]
> 7.00 | O=C(Nc1cccc(C(F)(F)F)n1)Nc1ccnc2cc(Br)ccc12 [Example 19, 1-(7-Bromoquinolin-4-yl)-3-(6-trifluoromethyl-pyridin-2-yl)-urea]
> 7.00 | COc1ccc2c(NC(=O)Nc3cccc(C(F)(F)F)n3)ccnc2c1 [Example 21, 1-(7-Methoxyquinolin-4-yl)-3-(6-trifluoromethyl-pyridin-2-yl)-urea]
> 7.00 | N#Cc1cccc2c(NC(=O)Nc3cccc(C(F)(F)F)n3)ccnc12 [Example 23]
> 7.00 | O=C(Nc1cccc(C(F)(F)F)n1)Nc1ccnc2c(I)cccc12 [Example 24, 1-(8-Iodoquinolin-4-yl)-3-(6-trifluoromethyl-pyridin-2-yl)-urea]
